Measured values taken from ChEMBL document CHEMBL1135650, “Synthesis of classical and nonclassical, partially restricted, linear, tricyclic 5-deaza antifolates” (J Med Chem, 2002).

T1: Dihydrofolate reductase (Homo sapiens, UniProt P00374)
T1 sequence (P00374 whole entry): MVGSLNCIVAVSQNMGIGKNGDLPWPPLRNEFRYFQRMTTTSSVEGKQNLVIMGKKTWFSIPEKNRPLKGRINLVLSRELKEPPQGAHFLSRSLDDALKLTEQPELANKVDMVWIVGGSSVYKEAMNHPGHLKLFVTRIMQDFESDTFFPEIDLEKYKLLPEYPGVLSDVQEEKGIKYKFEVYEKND

T2: Bifunctional dihydrofolate reductase-thymidylate synthase (Toxoplasma gondii, UniProt Q07422)
T2 sequence (Q07422 whole entry): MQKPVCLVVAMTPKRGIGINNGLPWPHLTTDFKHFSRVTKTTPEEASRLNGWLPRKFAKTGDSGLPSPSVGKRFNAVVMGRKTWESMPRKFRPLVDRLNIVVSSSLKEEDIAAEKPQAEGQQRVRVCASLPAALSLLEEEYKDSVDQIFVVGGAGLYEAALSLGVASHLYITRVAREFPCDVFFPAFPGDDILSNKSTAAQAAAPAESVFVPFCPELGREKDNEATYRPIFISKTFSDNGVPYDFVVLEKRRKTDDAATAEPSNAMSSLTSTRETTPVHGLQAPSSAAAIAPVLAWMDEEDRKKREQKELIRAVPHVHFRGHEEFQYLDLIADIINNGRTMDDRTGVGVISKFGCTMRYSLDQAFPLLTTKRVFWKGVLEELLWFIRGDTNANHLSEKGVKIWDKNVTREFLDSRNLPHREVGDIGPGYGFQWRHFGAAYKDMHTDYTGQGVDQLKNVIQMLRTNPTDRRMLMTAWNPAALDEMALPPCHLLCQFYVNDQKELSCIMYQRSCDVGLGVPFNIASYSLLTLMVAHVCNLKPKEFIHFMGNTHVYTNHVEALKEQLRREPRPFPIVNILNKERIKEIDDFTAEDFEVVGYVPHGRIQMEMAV

T3: Dihydrofolate reductase (Pneumocystis carinii, UniProt P16184)
T3 sequence (P16184 whole entry): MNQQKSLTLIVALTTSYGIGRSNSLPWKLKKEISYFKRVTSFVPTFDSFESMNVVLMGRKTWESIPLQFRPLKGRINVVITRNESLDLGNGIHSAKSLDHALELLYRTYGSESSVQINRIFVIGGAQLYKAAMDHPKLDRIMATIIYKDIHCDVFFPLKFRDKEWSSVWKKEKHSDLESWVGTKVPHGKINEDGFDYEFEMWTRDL

T4: Dihydrofolate reductase (Pneumocystis carinii) (UniProt P16184)
T4 sequence (whole entry): T3 sequence (P16184 whole entry)

B1: Folylpolyglutamate synthase, mitochondrial (Homo sapiens), Q05932 (protein)
chain: MSRARSHLRAALFLAAASARGITTQVAARRGLSAWPVPQEPSMEYQDAVRMLNTLQTNAGYLEQVKRQRGDPQTQLEAMELYLARSGLQVEDLDRLNIIHVTGTKGKGSTCAFTECILRSYGLKTGFFSSPHLVQVRERIRINGQPISPELFTKYFWRLYHRLEETKDGSCVSMPPYFRFLTLMAFHVFLQEKVDLAVVEVGIGGAYDCTNIIRKPVVCGVSSLGIDHTSLLGDTVEKIAWQKGGIFKQGVPAFTVLQPEGPLAVLRDRAQQISCPLYLCPMLEALEEGGPPLTLGLEGEHQRSNAALALQLAHCWLQRQDRHGAGEPKASRPGLLWQLPLAPVFQPTSHMRLGLRNTEWPGRTQVLRRGPLTWYLDGAHTASSAQACVRWFRQALQGRERPSGGPEVRVLLFNATGDRDPAALLKLLQPCQFDYAVFCPNLTEVSSTGNADQQNFTVTLDQVLLRCLEHQQHWNHLDEEQASPDLWSAPSPEPGGSASLLLAPHPPHTCSASSLVFSCISHALQWISQGRDPIFQPPSPPKGLLTHPVAHSGASILREAAAIHVLVTGSLHLVGGVLKLLEPALSQ

Tests used:
CCRF-CEM = test: Concentration required to decrease cell growth by 50% in CCRF-CEM human leukemia cell line; type: functional, cell-based
[1] = Kinetic constant Vmax relative to aminopterin; type: ADME
[2] = Concentration required to decrease cell growth by 50% in methotrexate-resistant CCRF-CEM human leukemia subline (R2); type: functional, cell-based
[3] = Concentration required to decrease cell growth by 50% in methotrexate-resistant CCRF-CEM human leukemia subline (R30dm); type: functional, cell-based
Dihydrofolate reductase [4] = biological target: T1, Dihydrofolate reductase
Description: Inhibitory activity against recombinant human Dihydrofolate reductase

[5] = test system: Panel leukemia (Carcinoma cell lines); test: In vitro inhibitory activity against the growth of tumor cells in leukemia cells;Value ranges from (10e-6 to 10e-7); type: functional; conditions: Homo sapiens
[6] = biological target: T2, Bifunctional dihydrofolate reductase-thymidylate synthase
Description: Inhibitory activity against Toxoplasma gondii (tg) Dihydrofolate reductase (DHFR)

Dihydrofolate reductase [7] = biological target: T3, Dihydrofolate reductase
Description: Inhibitory activity against pneumocystis carinii Dihydrofolate reductase

[8] = biological target: T4, Dihydrofolate reductase (Pneumocystis carinii); test: Percent Inhibition activity against pneumocystis carinii Dihydrofolate reductase; conditions: concentration not given here
[9] = Selectivity ratio as the ratio of IC50 value against recombinant human (rh) DHFR to that of Escherichia coli (ec) DHFR.; type: functional
[10] = Selectivity ratio as the ratio of IC50 value against recombinant human (rh) DHFR to that of Toxoplasma gondii (tg) DHFR.; type: functional
[11] = Selectivity ratio as the ratio of IC50 value against recombinant human (rh) DHFR to that of pneumocystis carinii (pc ) DHFR.; type: functional
[12] = Concentration required to decrease cell growth by 50% in methotrexate-resistant CCRF-CEM human leukemia subline (R1); type: functional, cell-based
[13] = Kinetic parameter Vmax of the compound; type: ADME
[14] = substrate: Nc1nc(N)c2cc3c(nc2n1)CCN(Cc1ccc(C(=O)N[C@@H](CCC(=O)O)C(=O)O)cc1)C3; test: (§1) Ability to act as a substrate for human folyglutamate synthetase (FPGS)
[15] = substrate: Nc1nc(N)c2nc(CNc3ccc(C(=O)N[C@@H](CCC(=O)O)C(=O)O)cc3)cnc2n1; test: as §1

Row | Molecule | IC50 (Dihydrofolate reductase [4]) [nM] | GI50 [5] [nM] | IC50 [6] [nM] | IC50 (Dihydrofolate reductase [7]) [nM] | other results
1 | CN(Cc1cnc2nc(N)nc(N)c2n1)c1ccc(C(=O)N[C@@H](CCC(=O)O)C(=O)O)cc1 [METHOTREXATE] |  |  |  |  | EC50 (CCRF-CEM): 12 nM; Vmax [1]: 0.82; EC50 [2]: 1700 nM; EC50 [3]: 16 nM
2 | Nc1nc(N)c2cc3c(nc2n1)CCN(Cc1ccccc1)C3 | 32000 | 1000 | 1400 | 16000 | 
3 | COc1ccc(CN2CCc3nc4nc(N)nc(N)c4cc3C2)cc1 | 27000 |  | 2900 | > 15000 | inhibition [8]: 35%
4 | Nc1nc(N)c2cc3c(nc2n1)CCN(Cc1ccc(Cl)cc1Cl)C3 | 1300 |  | 2100 | 4000 | 
5 | Nc1nc(N)c2cc3c(nc2n1)CCN(C(=O)OCc1ccccc1)C3 | 30000 | 1000 | 22000 | > 15000 | Ratio [9]: 10; inhibition [8]: 35%; Ratio [10]: 1.3
6 | Nc1nc(N)c2cc3c(nc2n1)CCN(Cc1ccc(Cl)c(Cl)c1)C3 | > 26000 |  | 5100 | 5000 | Ratio [9]: > 8.6; Ratio [10]: > 5; Ratio [11]: > 5.2
7 | Nc1nc(N)c2cc3c(nc2n1)CCN(Cc1ccc(C(=O)N[C@@H](CCC(=O)O)C(=O)O)cc1)C3 | 5400 | 1000 |  | 1800 | EC50 (CCRF-CEM): 771 nM; Vmax rel [1]: 1.07; EC50 [2]: > 10000 nM; EC50 [3]: 1900 nM; EC50 [12]: > 10000 nM
8 | COc1cc(CN2CCc3nc4nc(N)nc(N)c4cc3C2)cc(OC)c1 | 22000 |  | 2700 | 14000 | 
9 | Nc1nc(N)c2nc(CNc3ccc(C(=O)N[C@@H](CCC(=O)O)C(=O)O)cc3)cnc2n1 [AMINOPTERIN] |  |  |  |  | Vmax [13]: 1
10 | B1 |  |  |  |  | Km [14]: 27.3 µM; Km [15]: 2.15 µM
